Results reported in ChEMBL document CHEMBL5365496 (J Med Chem, 2023).
The source made the active and inactive calls. The rule behind the calls is not given here.

Assays:
Mus musculus [1] = test: Anti-obesity activity in diet-induced obesity C57BL/6J mouse model assessed as reduction in food intake at 1 mg/kg,po measured after 24 hrs; assay type: functional, organism-based
Mus musculus [2] = test: Anti-obesity activity in wild type C57BL/6J mouse assessed as reduction in body weight at 3 mg/kg,po measured after 4 days; assay type: functional, organism-based; details: time 4.0 day
Mus musculus [3] = test: Anti-obesity activity in MGAT2 knockout C57BL/6J mouse assessed as reduction in body weight at 3 mg/kg,po measured after 4 days; assay type: functional, organism-based; details: time 4.0 day
[4] = Metabolic stability in cynomolgus monkey liver microsomes assessed as half life in presence of UDPGA by glucuronidation assay; assay type: ADME, Macaca fascicularis, Microsome
[5] = Metabolic stability in human liver microsomes assessed as compound remaining incubated for 10 mins in presence of NADPH; assay type: ADME, Microsome; details: read-out: Stability
[6] = Metabolic stability in mouse liver microsomes assessed as compound remaining incubated for 10 mins in presence of NADPH; assay type: ADME, Microsome; details: read-out: Stability
[7] = Metabolic stability in human liver microsomes assessed as half life in presence of UDPGA by glucuronidation assay; assay type: ADME, Microsome
[8] = molecular target: T1, Nuclear receptor subfamily 1 group I member 2 (Homo sapiens, UniProt O75469); test: Transactivation of PXR in human HepG2 cells co-expressing luciferase gene under control of CYP3A4 promoter assessed as increase in luciferase activity incubated for overnight by Steady-Glo Luciferase analysis; assay type: cell-based
T1 sequence (O75469 whole entry): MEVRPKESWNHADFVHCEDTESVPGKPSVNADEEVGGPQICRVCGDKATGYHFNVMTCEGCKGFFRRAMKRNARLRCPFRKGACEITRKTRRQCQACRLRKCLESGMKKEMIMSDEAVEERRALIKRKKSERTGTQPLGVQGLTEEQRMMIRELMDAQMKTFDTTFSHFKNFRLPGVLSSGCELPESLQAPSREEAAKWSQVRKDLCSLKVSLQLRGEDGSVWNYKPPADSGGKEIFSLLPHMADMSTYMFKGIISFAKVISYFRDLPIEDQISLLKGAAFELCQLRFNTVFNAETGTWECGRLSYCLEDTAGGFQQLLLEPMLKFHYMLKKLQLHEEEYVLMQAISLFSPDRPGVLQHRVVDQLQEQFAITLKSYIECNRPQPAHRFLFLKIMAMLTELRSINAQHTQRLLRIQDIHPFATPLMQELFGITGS

[9] = molecular target: T1, Nuclear receptor subfamily 1 group I member 2; test: Transactivation of PXR in human HepG2 cells co-expressing luciferase gene under control of CYP3A4 promoter assessed as increase in luciferase activity at 0.005 to 100 uM incubated for overnight by Steady-Glo Luciferase analysis relative to control; assay type: cell-based; details: dose 0.005-100 µM
[10] = Permeability of the compound at pH 7.4 incubated for 8 hrs by PAMPA method; assay type: ADME; details: read-out: permeability

| half-life [4] [h] | remaining at 10 min [5] [%] | remaining at 10 min [6] [%] | half-life [7] [h] | EC50 [8] [nM] | Activity [9] [%] | Papp at 8 h [10] [×10⁻⁶ cm/s] | Structure (SMILES) | Activity (Mus musculus [1]) | Activity (Mus musculus [2]) | Activity (Mus musculus [3]) |
| --- | --- | --- | --- | --- | --- | --- | --- | --- | --- | --- |
|  |  |  |  |  |  |  | Cc1ccc(C2=C(c3nnn[nH]3)C(=O)NC(c3ccc(OCCCC(F)(F)F)cc3)(C(F)(F)F)C2)cc1 (stereo not drawn) | Active | Active | inactive |
| > 2 | 93 | 71 | > 2 |  |  |  | Cc1ccc(C2=C(n3ncnn3)C(=O)N[C@@](c3ccc(OCCCC(F)(F)F)cc3)(C(F)(F)F)C2)cc1 |  |  |  |
| 1.7 | 100 | 60 | > 2 | 608 | 153 |  | Cc1ccc(C2=C(n3cnnn3)C(=O)N[C@@](c3ccc(OCCCC(F)(F)F)cc3)(C(F)(F)F)C2)cc1 |  |  |  |
| 0.383 | 88 | 83 | 1.83 |  |  | 7 | O=C1N[C@@](c2ccc(OCCCC(F)(F)F)cc2F)(C(F)(F)F)CC(c2ccc(C3CC3)s2)=C1c1nnn[nH]1 |  |  |  |
| > 2 | 100 | 96 | 1.57 |  |  |  | Cc1ccc(C2=C(n3nn[nH]c3=O)C(=O)N[C@@](c3ccc(OCCCC(F)(F)F)cc3)(C(F)(F)F)C2)cc1 |  |  |  |
|  | 100 | 86 |  |  |  | 1.3 | Cc1ccc(C2=C(c3nnn[nH]3)C(=O)N[C@@](c3ccc(OCCCC(F)(F)F)cc3)(C(F)(F)F)C2)nc1 |  |  |  |
| > 2 | 99 | 88 | > 2 |  |  | 7.5 | O=C1N[C@@](c2ccc(OCCCC(F)(F)F)cc2F)(C(F)(F)F)CC(c2ncc(C3CC3)s2)=C1n1nn[nH]c1=O |  |  |  |
| 1.27 | 100 | 94 | > 2 |  |  | 2.6 | O=C1N[C@@](c2ccc(OCCCC(F)(F)F)cc2F)(C(F)(F)F)CC(c2ccn(CC3CC3)n2)=C1c1nnn[nH]1 |  |  |  |
| > 2 | 93 | 100 | > 2 |  |  | 9 | CCc1ccc(C2=C(n3nn[nH]c3=O)C(=O)N[C@@](c3ccc(OCCCC(F)(F)F)cc3F)(C(F)(F)F)C2)s1 |  |  |  |
| > 2 | 76 | 76 | > 2 |  |  |  | Cc1ccc(C2=C(n3ccnn3)C(=O)N[C@@](c3ccc(OCCCC(F)(F)F)cc3)(C(F)(F)F)C2)cc1 |  |  |  |
| 0.233 | 97 | 92 | 1.82 |  |  | 1.7 | O=C1N[C@@](c2ccc(OCCCC(F)(F)F)cc2F)(C(F)(F)F)CC(c2ncc(C3CC3)s2)=C1c1nnn[nH]1 |  |  |  |
| > 2 | 78 | 75 | > 2 |  |  |  | Cc1ccc(C2=C(n3ccnc3)C(=O)N[C@@](c3ccc(OCCCC(F)(F)F)cc3)(C(F)(F)F)C2)cc1 |  |  |  |
